From PubChem BioAssay AID1259407 (Chemical Carcinogenesis Research Information System (CCRIS), 2018) come the findings set out here.

The structures appear in SMILES notation. Calls of active or inactive are those of the source. How the calls were made is not given here.

This data set deals with CCRIS mutagenicity, Ames/micronucleus/aberration tests. In words: CCRIS mutagenicity studies.
[1] abbreviates: Test System: AMES SALMONELLA TYPHIMURIUM, Strain/Indicator: TA98, Metabolic Activation: NONE, Method: STANDARD PLATE.
The mark [2] stands for this setting: Test System: AMES SALMONELLA TYPHIMURIUM, Strain/Indicator: TA98, Metabolic Activation: RAT, LIVER, S-9, AROCLOR 1254, Method: STANDARD PLATE.
Setting [3] is: Test System: AMES SALMONELLA TYPHIMURIUM, Strain/Indicator: TA100, Metabolic Activation: NONE, Method: PREINCUBATION
Setting [4] is: Test System: AMES SALMONELLA TYPHIMURIUM, Strain/Indicator: TA100, Metabolic Activation: NONE, Method: STANDARD PLATE.
[5] abbreviates: Test System: AMES SALMONELLA TYPHIMURIUM, Strain/Indicator: TA100, Metabolic Activation: RAT, LIVER, S-9, AROCLOR 1254, Method: STANDARD PLATE.
Where [6] appears, read: Test System: AMES SALMONELLA TYPHIMURIUM, Strain/Indicator: TA1537, Metabolic Activation: NONE, Method: STANDARD PLATE.
Setting [7] is: Test System: AMES SALMONELLA TYPHIMURIUM, Strain/Indicator: TA1537, Metabolic Activation: RAT, LIVER, S-9, AROCLOR 1254, Method: STANDARD PLATE.

Take `Cl/C=C/C[N+]12CN3CN(CN(C3)C1)C2`: the mutagenic call reads like this: (Test System: AMES SALMONELLA TYPHIMURIUM, Strain/Indicator: TA97, Metabolic Activation: HAMSTER, LIVER, S-9, AROCLOR 1254 (5, 10 OR 30%), Method: PREINCUBATION) “inactive; negative”; (Test System: AMES SALMONELLA TYPHIMURIUM, Strain/Indicator: TA97, Metabolic Activation: NONE, Method: PREINCUBATION) “inactive; negative”; (Test System: AMES SALMONELLA TYPHIMURIUM, Strain/Indicator: TA97, Metabolic Activation: RAT, LIVER, S-9, AROCLOR 1254 (5, 10 OR 30%), Method: PREINCUBATION) “inactive; negative”; (Test System: AMES SALMONELLA TYPHIMURIUM, Strain/Indicator: TA98, Metabolic Activation: HAMSTER, LIVER, S-9, AROCLOR 1254 (5 OR 30%), Method: PREINCUBATION) “inactive; negative”; (Test System: AMES SALMONELLA TYPHIMURIUM, Strain/Indicator: TA98, Metabolic Activation: HAMSTER, LIVER, S-9, AROCLOR 1254 (10%), Method: PREINCUBATION) “inactive; negative”; (Test System: AMES SALMONELLA TYPHIMURIUM, Strain/Indicator: TA98, Metabolic Activation: HAMSTER, LIVER, S-9, AROCLOR 1254, Method: STANDARD PLATE) “inactive; negative”. Also, the mutagenic call is “active; positive” (Test System: AMES SALMONELLA TYPHIMURIUM, Strain/Indicator: TA98, Metabolic Activation: NONE, Method: PREINCUBATION); “inactive; negative” under setting [1]; “inactive; negative” (Test System: AMES SALMONELLA TYPHIMURIUM, Strain/Indicator: TA98, Metabolic Activation: RAT, LIVER, S-9, AROCLOR 1254 (5 OR 30%), Method: PREINCUBATION); “inactive; negative” (Test System: AMES SALMONELLA TYPHIMURIUM, Strain/Indicator: TA98, Metabolic Activation: RAT, LIVER, S-9, AROCLOR 1254 (10%), Method: PREINCUBATION); “inactive; negative” under setting [2]; “inactive; negative” (Test System: AMES SALMONELLA TYPHIMURIUM, Strain/Indicator: TA100, Metabolic Activation: HAMSTER, LIVER, S-9, AROCLOR 1254 (5 OR 30%), Method: PREINCUBATION). Moreover, the mutagenic call is “inactive; negative” (Test System: AMES SALMONELLA TYPHIMURIUM, Strain/Indicator: TA100, Metabolic Activation: HAMSTER, LIVER, S-9, AROCLOR 1254 (10%), Method: PREINCUBATION); “inactive; negative” (Test System: AMES SALMONELLA TYPHIMURIUM, Strain/Indicator: TA100, Metabolic Activation: HAMSTER, LIVER, S-9, AROCLOR 1254, Method: STANDARD PLATE); “inactive; negative” under setting [3]; “inactive; negative” under setting [4]; “inactive; negative” (Test System: AMES SALMONELLA TYPHIMURIUM, Strain/Indicator: TA100, Metabolic Activation: RAT, LIVER, S-9, AROCLOR 1254 (5 OR 30%), Method: PREINCUBATION); “inactive; negative” (Test System: AMES SALMONELLA TYPHIMURIUM, Strain/Indicator: TA100, Metabolic Activation: RAT, LIVER, S-9, AROCLOR 1254 (10%), Method: PREINCUBATION). Also, the mutagenic call under setting [5] was “inactive; negative”; the mutagenic call (Test System: AMES SALMONELLA TYPHIMURIUM, Strain/Indicator: TA1535, Metabolic Activation: HAMSTER, LIVER, S-9, AROCLOR 1254 (10%), Method: PREINCUBATION) was “inactive; negative”; the mutagenic call (Test System: AMES SALMONELLA TYPHIMURIUM, Strain/Indicator: TA1535, Metabolic Activation: HAMSTER, LIVER, S-9, AROCLOR 1254, Method: STANDARD PLATE) is “inactive; negative”; the mutagenic call (Test System: AMES SALMONELLA TYPHIMURIUM, Strain/Indicator: TA1535, Metabolic Activation: NONE, Method: PREINCUBATION) was “inactive; negative”; the mutagenic call (Test System: AMES SALMONELLA TYPHIMURIUM, Strain/Indicator: TA1535, Metabolic Activation: NONE, Method: STANDARD PLATE) is “inactive; negative”; the mutagenic call (Test System: AMES SALMONELLA TYPHIMURIUM, Strain/Indicator: TA1535, Metabolic Activation: RAT, LIVER, S-9, AROCLOR 1254 (10%), Method: PREINCUBATION) was “inactive; negative”. In addition, the mutagenic call runs as follows: (Test System: AMES SALMONELLA TYPHIMURIUM, Strain/Indicator: TA1535, Metabolic Activation: RAT, LIVER, S-9, AROCLOR 1254, Method: STANDARD PLATE) “inactive; negative”; (Test System: AMES SALMONELLA TYPHIMURIUM, Strain/Indicator: TA1537, Metabolic Activation: HAMSTER, LIVER, S-9, AROCLOR 1254 (5, 10 OR 30%), Method: PREINCUBATION) “inactive; negative”; (Test System: AMES SALMONELLA TYPHIMURIUM, Strain/Indicator: TA1537, Metabolic Activation: HAMSTER, LIVER, S-9, AROCLOR 1254, Method: STANDARD PLATE) “inactive; negative”; under setting [6], “inactive; negative”; (Test System: AMES SALMONELLA TYPHIMURIUM, Strain/Indicator: TA1537, Metabolic Activation: RAT, LIVER, S-9, AROCLOR 1254 (5, 10 OR 30%), Method: PREINCUBATION) “inactive; negative”; under setting [7], “inactive; negative”. The mutagenic call was “inactive; negative” (Test System: AMES SALMONELLA TYPHIMURIUM, Strain/Indicator: TA1538, Metabolic Activation: HAMSTER, LIVER, S-9, AROCLOR 1254, Method: STANDARD PLATE); “inactive; negative” (Test System: AMES SALMONELLA TYPHIMURIUM, Strain/Indicator: TA1538, Metabolic Activation: NONE, Method: STANDARD PLATE); “inactive; negative” (Test System: AMES SALMONELLA TYPHIMURIUM, Strain/Indicator: TA1538, Metabolic Activation: RAT, LIVER, S-9, AROCLOR 1254, Method: STANDARD PLATE); “active; positive. reevaluation of results: positive” (Test System: MOUSE LYMPHOMA, Strain/Indicator: L5178Y (TK+/TK-), Metabolic Activation: NONE, Method: SUSPENSION/PLATE); “active; positive. reevaluation of results: positive” (Test System: MOUSE LYMPHOMA, Strain/Indicator: L5178Y (TK+/TK-), Metabolic Activation: RAT, LIVER, S-9, AROCLOR 1254, Method: SUSPENSION/PLATE).
Consider `CCC[CH2][Sn]=[O]`, for which the mutagenic call (Test System: AMES SALMONELLA TYPHIMURIUM, Strain/Indicator: TA98, Metabolic Activation: NONE, Method: SUSPENSION/PLATE) was “inactive; negative” and the mutagenic call (Test System: AMES SALMONELLA TYPHIMURIUM, Strain/Indicator: TA100, Metabolic Activation: NONE, Method: SUSPENSION/PLATE) was “inactive; negative”.
As to `CN1COCN(Cc2cnc(Cl)s2)/C1=N/[N+](=O)[O-]`, the mutagenic call (End Point: IN VIVO MICRONUCLEUS, Test System: BONE MARROW POLYCHROMATIC ERYTHROCYTES, Species: RAT, Strain/Sex: WISTAR/FEMALE, Route: ORAL (GAVAGE)) was “active; positive” and the mutagenic call (End Point: IN VIVO MICRONUCLEUS, Test System: POLYCHROMATIC ERYTHROCYTES FROM COLONIC CRYPT EPITHELIAL CELLS, Species: RAT, Strain/Sex: WISTAR/FEMALE, Route: ORAL (GAVAGE)) was “active; positive”.
As to `C1CCC2OCCOCCOCCOC3CCCCC3OCCOCCOCCOC2C1` (stereo unspecified), the mutagenic call under setting [1] is “inactive; negative”; the mutagenic call under setting [2] is “inactive; negative”; the mutagenic call under setting [4] is “inactive; negative”; the mutagenic call under setting [5] was “inactive; negative”; the mutagenic call (Test System: AMES SALMONELLA TYPHIMURIUM, Strain/Indicator: TA1530, Metabolic Activation: NONE, Method: STANDARD PLATE) is “inactive; negative”; the mutagenic call (Test System: AMES SALMONELLA TYPHIMURIUM, Strain/Indicator: TA1530, Metabolic Activation: RAT, LIVER, S-9, AROCLOR 1254, Method: STANDARD PLATE) is “inactive; negative”. In addition, the mutagenic call is, setting by setting: under setting [6], “inactive; negative”; under setting [7], “inactive; negative”.
`N[C@@H](CCC(=O)N[C@@H](CSc1ccc([N+](=O)[O-])cc1[N+](=O)[O-])C(=O)NCC(=O)O)C(=O)O`: the mutagenic call was “inactive; negative” (Test System: AMES SALMONELLA TYPHIMURIUM, Strain/Indicator: TA100(NR), Metabolic Activation: NONE, Method: PREINCUBATION); “active; positive” (Test System: AMES SALMONELLA TYPHIMURIUM, Strain/Indicator: TA100/GSH-, Metabolic Activation: NONE, Method: PREINCUBATION); “inactive; negative” under setting [3].
`CCN(CC)c1cc(NC(C)=O)c(N=Nc2c(Cl)cc([N+](=O)[O-])cc2[N+](=O)[O-])cc1OC`: the mutagenic call (End Point: IN VITRO CHROMOSOMAL ABERRATIONS, Test System: CHL CELLS, Metabolic Activation: RAT, LIVER, S-9, SODIUM PHENOBARBITAL AND 5,6-BENZOFLAVONE) was “inactive; negative”.
